Measurements reported in patent US12157885B2, “Methods of screening using barcoded libraries” (President and Fellows of Harvard College, priority 2016, dated 2024).

Tested on: library of barcoded yeast strains expressing toxic aggregation prone proteins, non-aggregation toxic proteins or benign control proteins
Assay: Barcoded mixed pool growth competition of a yeast library under inducing conditions (galactose) with or without a small molecule, with barcodes quantified by next-generation sequencing
Assay type: cell-based
Details: for rescue of growth of strains expressing toxic aggregation prone proteins (barcode representation relative to no drug condition): difference >3 standard deviations vs no drug highlighted
Experimental: Several experiments were conducted in which all members of the library were mixed at equal amounts and the library was grown under non-inducing conditions (glucose) or in the presence of galactose (inducing condition) with or without a small molecule of interest. After overnight outgrowth, genomic DNA was extracted from each of the experimental conditions and barcodes were quantified.
A library of barcoded yeast and their associated genes of interest were subjected to growth under inducing conditions in the presence or absence of small molecules. In FIG. 5A, Lovastatin at 2 ug/ml was added to the outgrowth media. In FIG. 5B, Celestrol at 1 ug/ml was added to the outgrowth media. Growth in the presence of drug was normalized to the without drug condition and plotted relative to the no drug condition. […] “416” and “426” refers to the plasmid background used to express each of the genes tested.
For growth competition experiments, yeast strains each with a unique DNA barcode along with containing a plasmid encoding a control or toxic protein of interest were first grown overnight to saturation in SC-URA+glucose. The various barcoded lines were then mixed in defined ratios and passaged at a 1:1000 dilution into fresh SC-URA+glucose or SC-URA+galactose media. For experiments involving small molecules, yeast were diluted into SC-URA+galactose media containing a given small molecule of interest and allowed to grow for 36 hours before genomic DNA was extracted from the population of cells.
Yeast lysis was performed as previously described. See Lõoke, M., Kristjuhan, K. & Kristjuhan, A. Extraction of genomic DNA from yeasts for PCR-based applications. BioTechniques 50, 325-328 (2011). Briefly, 300-900 ul of overnight culture was spun down and resuspended in 300 ul of 200 mM LiAc, 1% SDS solution. Cells were then vortexed several times and incubated at 70° C. for 10-15 minutes. 900 ul of >95% ethanol was then added to the samples and they were inverted several times along with vortexing to mix the solution well. The samples were then spun at 15,000 g for 3 minutes and the supernatant was discarded. Pellets were washed 1× with 70% ethanol, spun at 15,000 g for 3 minutes and the supernatant was again removed. The pellet was then allowed to air dry for 5-10 minutes before adding in 100 ul of 10 mM Tris pH 8.5 and pipetting up and down to break up the pellet. Samples were then placed in a heating block set to 37° C. for 10 minutes, spun again at 15,000 g for 3 minutes and then the supernatant was collected and used in downstream DNA analysis.
Genomic DNA was extracted and barcoded using one of four internally barcoded forward primers, […] NNNN CACAG […]; […] NNNN GTGTT […]; […] NNNN TCTTG […]; […] NNNN AGCTC […]; in combination with the reverse primer, […]aacgccgccatccagtttaaacgag. Following PCR, the amplicons were purified and normalized using SequalPrep Normalization Plate (96) kit (Thermo Fisher). A second round of PCR was next performed using the Illumina Truseq adapters in order to allow individual samples to be identified during subsequent data analysis. The reads were aligned to a list of the 96 possible barcodes (see Ho, C. H. et al. A molecular barcoded yeast ORF library enables mode-of-action analysis of bioactive compounds. Nat. Biotechnol. 27, 369-377 (2009) using BWA. The depth of coverage for each barcode was calculated for each of the samples using a custom script and normalized to the total number of reads per sample.

Row | Compound | rescue of growth of strains expressing toxic aggregation prone proteins (barcode representation relative to no drug condition) (Celestrol at 1 ug/ml in outgrowth media, FIG. 5B) | change in growth of control strains expressing benign proteins (eYFP, mCherry) (Celestrol at 1 ug/ml, FIG. 5B) | rescue of strains expressing proteins that cause toxicity in yeast outside of protein aggregation (Celestrol at 1 ug/ml, FIG. 5B) | rescue of growth of strains expressing toxic aggregation prone proteins (barcode representation relative to no drug condition) (Lovastatin at 2 ug/ml in outgrowth media, FIG. 5A) | change in growth of control strains expressing benign proteins (eYFP, mCherry) (Lovastatin at 2 ug/ml, FIG. 5A) | rescue of strains expressing proteins that cause toxicity in yeast outside of protein aggregation (Lovastatin at 2 ug/ml, FIG. 5A)
1 | CC1=C(O)C(=O)C=C2C1=CC=C1[C@@]2(C)CC[C@@]2(C)[C@@H]3C[C@](C)(C(=O)O)CC[C@]3(C)CC[C@]12C [Celestrol] | showed an ability to rescue the growth of some of the toxic aggregation prone proteins | nor did control strains expressing benign proteins such as eYFP and mCherry exhibit a significant change in their growth | none of the proteins that cause toxicity in yeast through alternative methods outside of protein aggregation showed significant rescue | – | – | –
2 | CC[C@H](C)C(=O)O[C@H]1C[C@@H](C)C=C2C=C[C@H](C)[C@H](CC[C@@H]3C[C@@H](O)CC(=O)O3)[C@H]21 [Lovastatin] | – | – | – | showed an ability to rescue the growth of some of the toxic aggregation prone proteins | nor did control strains expressing benign proteins such as eYFP and mCherry exhibit a significant change in their growth | none of the proteins that cause toxicity in yeast through alternative methods outside of protein aggregation showed significant rescue
